Values after ≈ are worked out from the molar mass of the structure shown. Where two headings read alike, the source gives them in different places.
Tests used:
Experiment in all cases: microbe, parasite or virus in culture
[1] = test system: Staphylococcus aureus ATCC BAA-1556 (USA300, MRSA)
Procedure: (§1) The S. aureus strains ATCC 29213, ATCC 19636, ATCC 33591 (MRSA), BAA-1556 (MRSA USA 300) were obtained from the American Type Culture Collection (ATCC). […] The species identity was confirmed with 16S rRNA analysis.
(§2) Two broth mediums were used, Mueller Hinton Broth and RPMI 1640+5% fetal bovine serum. Test substances were evaluated in 11-point titrations and performed in duplicate.
(§3) The direct colony suspension method was used to prepare inoculated broth. Isolated colonies were taken from an 18-24 h culture plate. Optical density measurements (OD620nm) were used to estimate the bacterial density. […] The stock solutions were diluted by 2-fold serial titrations with their respective vehicles for a total of 11 concentrations.
(§4) A 4 μL aliquot of each dilution was added to 196 μL of broth medium seeded with the organism in wells of a sterilized 96 well polypropylene plate (Nunc™ 249949) using aluminum foil as cover. The final bacterial count was 2 to 8×10^5 CFU/mL. […] The final test article concentration range was 32 to 0.0313 μg/mL.
(§5) Each test substance dilution was evaluated in duplicate on one test occasion. […] Plates were incubated at 35-37° C. for 18 h. The test plates were visually examined and each well was visually scored for growth or complete inhibition of growth. The MIC value was recorded.

[2] = test system: Staphylococcus aureus ATCC 29213; conditions: for MIC: Staphylococcus aureus; for susceptibility category (CLSI M100 interpretive criteria) / MIC, antibiotic susceptibility: ATCC 29213
Procedure: as §1, §2, §3, §4, §5

[3] = test system: Staphylococcus aureus ATCC 19636 (Smith)
Procedure: as §1, §2, §3, §4, §5

[4] = test system: Staphylococcus aureus ATCC 33591 (MRSA); conditions: for MIC: Staphylococcus aureus
Procedure: as §1, §2, §3, §4, §5

[5] = test system: Staphylococcus aureus VRS-2 (VanA, VRSA); set-up: MIC, antibiotic susceptibility: unit not given beside the values; conditions: for MIC: Staphylococcus aureus, VRSA; for MIC, antibiotic susceptibility: unit not given
Procedure: as §1, §2, §3, §4, §5

[6] = Staphylococcus aureus, ATCCBAA1556|BAA1556|MRSA|USA300, 18 h, read-out: MIC, antibiotic susceptibility
[7] = ATCC29213, 18 h, read-out: MIC, antibiotic susceptibility, ATCC 29213, CLSI M7-A10, unit inferred
[8] = Staphylococcus aureus, ATCC19636, 18 h, read-out: MIC, antibiotic susceptibility
[9] = ATCC33591|MRSA, 18 h, read-out: MIC, antibiotic susceptibility, ATCC 33591, CLSI M7-A10, unit inferred
[10] = 18 h, read-out: MIC, antibiotic susceptibility, VRS-2, CLSI M7-A10, unit inferred

CO/N=C(\C(=O)N[C@@H]1C(=O)N2C(C(=O)[O-])=C(C[N+]3(C)CCCC3)CS[C@H]12)c1csc(N)n1 [Cefepime]
MIC [1, 6]: 16 to 64 µg/mL (≈ 33.3 to 133 µM)
MIC [2, 7]: 2 to 4 µg/mL (≈ 4.16 to 8.32 µM)
MIC [3, 8]: 2 µg/mL (≈ 4.16 µM)
MIC [4, 9]: > 64 µg/mL
MIC [5, 10]: > 64 µg/mL

CO/N=C(\C(=O)N[C@@H]1C(=O)N2C(C(=O)O)=C(CSc3nc(=O)c(=O)[nH]n3C)CS[C@H]12)c1csc(N)n1 [Ceftriaxone]
MIC [1, 6]: ≥ 64 µg/mL
MIC [2, 7]: 4 µg/mL (≈ 7.21 µM)
MIC [3, 8]: 4 µg/mL (≈ 7.21 µM)
MIC [4, 9]: > 64 µg/mL
MIC [5, 10]: > 64 µg/mL

CCC[C@@H]1C[C@@H](C(=O)N[C@@H]([C@H]2O[C@H](SC)[C@H](O)[C@@H](O)[C@H]2O)[C@H](C)Cl)N(C)C1 [Clindamycin]
susceptibility category (CLSI M100 interpretive criteria) ([1]; BAA-1556): R
MIC [1, 6]: > 64 µg/mL
susceptibility category (CLSI M100 interpretive criteria) [2]: S
MIC [2, 7]: 0.125 µg/mL (≈ 0.294 µM)
susceptibility category (CLSI M100 interpretive criteria) ([3]; ATCC 19636 (Smith)): S
MIC [3, 8]: 0.125 µg/mL (≈ 0.294 µM)
susceptibility category (CLSI M100 interpretive criteria) ([4]; ATCC 33591): R
MIC [4, 9]: > 64 µg/mL
MIC [5, 10]: > 64 µg/mL
susceptibility category (CLSI M100 interpretive criteria) ([5]; VRS-2): R

CCCCCCCCCC(=O)N[C@@H](Cc1c[nH]c2ccccc12)C(=O)N[C@H](CC(N)=O)C(=O)N[C@@H](CC(=O)O)C(=O)N[C@@H]1C(=O)NCC(=O)N[C@@H](CCCN)C(=O)N[C@@H](CC(=O)O)C(=O)N[C@H](C)C(=O)N[C@@H](CC(=O)O)C(=O)NCC(=O)N[C@H](CO)C(=O)N[C@@H]([C@H](C)CC(=O)O)C(=O)N[C@@H](CC(=O)c2ccccc2N)C(=O)O[C@@H]1C [Daptomycin]
susceptibility category (CLSI M100 interpretive criteria) ([1]; BAA-1556): S
MIC [1, 6]: 0.25 µg/mL (≈ 0.154 µM)
susceptibility category (CLSI M100 interpretive criteria) [2]: S
MIC [2, 7]: 0.125 to 0.5 µg/mL (≈ 0.0771 to 0.309 µM)
susceptibility category (CLSI M100 interpretive criteria) ([3]; ATCC 19636 (Smith)): S
MIC [3, 8]: 0.25 µg/mL (≈ 0.154 µM)
susceptibility category (CLSI M100 interpretive criteria) ([4]; ATCC 33591): S
MIC [4, 9]: 0.5 µg/mL (≈ 0.309 µM)
MIC [5, 10]: 0.25 µg/mL (≈ 0.154 µM)
susceptibility category (CLSI M100 interpretive criteria) ([5]; VRS-2): S

CC[C@H]1OC(=O)[C@H](C)[C@@H](O[C@H]2C[C@@](C)(OC)[C@@H](O)[C@H](C)O2)[C@H](C)[C@@H](O[C@@H]2O[C@H](C)C[C@H](N(C)C)[C@H]2O)[C@](C)(O)C[C@@H](C)C(=O)[C@H](C)[C@@H](O)[C@]1(C)O [Erythromycin]
susceptibility category (CLSI M100 interpretive criteria) ([1]; BAA-1556): R
MIC [1, 6]: > 64 µg/mL
susceptibility category (CLSI M100 interpretive criteria) [2]: S-I
MIC [2, 7]: 0.25 to 1 µg/mL (≈ 0.341 to 1.36 µM)
susceptibility category (CLSI M100 interpretive criteria) ([3]; ATCC 19636 (Smith)): S-I
MIC [3, 8]: 0.25 to 1 µg/mL (≈ 0.341 to 1.36 µM)
susceptibility category (CLSI M100 interpretive criteria) ([4]; ATCC 33591): R
MIC [4, 9]: > 64 µg/mL
MIC [5, 10]: > 64 µg/mL
susceptibility category (CLSI M100 interpretive criteria) ([5]; VRS-2): R

C[C@@H](O)[C@H]1C(=O)N2C(C(=O)O)=C(SCCN=CN)C[C@H]12 [Imipenem]
MIC [1, 6]: 0.125 to 0.25 µg/mL (≈ 0.418 to 0.835 µM)
MIC [2, 7]: 0.016 to 0.031 µg/mL (≈ 0.0534 to 0.104 µM)
MIC [3, 8]: ≤ 0.016 µg/mL
MIC [4, 9]: ≥ 16 µg/mL
MIC [5, 10]: > 16 µg/mL

C[C@H]1COc2c(N3CCN(C)CC3)c(F)cc3c(=O)c(C(=O)O)cn1c23 [Levofloxacin]
susceptibility category (CLSI M100 interpretive criteria) ([1]; BAA-1556): R
MIC [1, 6]: 4 to 8 µg/mL (≈ 11.1 to 22.1 µM)
susceptibility category (CLSI M100 interpretive criteria) [2]: S
MIC [2, 7]: 0.125 to 0.25 µg/mL (≈ 0.346 to 0.692 µM)
susceptibility category (CLSI M100 interpretive criteria) ([3]; ATCC 19636 (Smith)): S
MIC [3, 8]: 0.125 µg/mL (≈ 0.346 µM)
susceptibility category (CLSI M100 interpretive criteria) ([4]; ATCC 33591): S
MIC [4, 9]: 0.25 µg/mL (≈ 0.692 µM)
MIC [5, 10]: 32 µg/mL (≈ 88.6 µM)
susceptibility category (CLSI M100 interpretive criteria) ([5]; VRS-2): R

CC(=O)NC[C@H]1CN(c2ccc(N3CCOCC3)c(F)c2)C(=O)O1 [Linezolid]
MIC ([1]; ATCC BAA-1556, MHB): 2 µg/mL (≈ 5.93 µM)
susceptibility category (CLSI M100 interpretive criteria) ([1]; BAA-1556): S
MIC [1, 6]: 2 µg/mL (≈ 5.93 µM)
susceptibility category (CLSI M100 interpretive criteria) [2]: S
MIC [2, 7]: 2 to 4 µg/mL (≈ 5.93 to 11.9 µM)
MIC ([2]; ATCC29213, ATCC 29213, MHB): 4 µg/mL (≈ 11.9 µM)
MIC ([2]; ATCC29213, ATCC 29213, RPMI + 5% FBS): 2 µg/mL
susceptibility category (CLSI M100 interpretive criteria) ([3]; ATCC 19636 (Smith)): S
MIC ([3]; ATCC 19636 (Smith), MHB): 2 µg/mL (≈ 5.93 µM)
MIC [3, 8]: 2 to 4 µg/mL (≈ 5.93 to 11.9 µM)
susceptibility category (CLSI M100 interpretive criteria) ([4]; ATCC 33591): S
MIC ([4]; ATCC 33591, MHB): 2 µg/mL (≈ 5.93 µM)
MIC ([4]; ATCC 33591, RPMI + 5% FBS): 1 µg/mL
MIC [4, 9]: 0.5 to 1 µg/mL (≈ 1.48 to 2.96 µM)
MIC [5, 10]: 2 µg/mL (≈ 5.93 µM)
MIC ([5]; VRS-2, MHB): 2 µg/mL (≈ 5.93 µM)
MIC ([5]; VRS-2, RPMI + 5% FBS): 1 µg/mL
susceptibility category (CLSI M100 interpretive criteria) ([5]; VRS-2): S

C[C@@H](O)[C@H]1C(=O)N2C(C(=O)O)=C(S[C@@H]3CN[C@H](C(=O)N(C)C)C3)[C@H](C)[C@H]12 [Meropenem]
MIC [2, 7]: 0.0625 µg/mL (≈ 0.163 µM)

C/C(=C\C(=O)OCCCCCCCCC(=O)O)C[C@@H]1OC[C@H](C[C@@H]2O[C@H]2[C@@H](C)[C@H](C)O)[C@@H](O)[C@H]1O [Mupirocin]
MIC [1, 6]: > 64 µg/mL
MIC [2, 7]: 0.25 to 2 µg/mL (≈ 0.499 to 3.99 µM)
MIC [3, 8]: 1 µg/mL (≈ 2 µM)
MIC [4, 9]: 1 to 2 µg/mL (≈ 2 to 3.99 µM)
MIC [5, 10]: 1 to 2 µg/mL (≈ 2 to 3.99 µM)

Cc1onc(-c2ccccc2)c1C(=O)N[C@@H]1C(=O)N2[C@@H]1SC(C)(C)[C@@H]2C(=O)O [Oxacillin]
susceptibility category (CLSI M100 interpretive criteria) ([1]; BAA-1556): R
MIC [1, 6]: 64 µg/mL (≈ 159 µM)
susceptibility category (CLSI M100 interpretive criteria) [2]: S
MIC [2, 7]: 0.25 to 0.5 µg/mL (≈ 0.623 to 1.25 µM)
susceptibility category (CLSI M100 interpretive criteria) ([3]; ATCC 19636 (Smith)): S
MIC [3, 8]: 0.25 µg/mL (≈ 0.623 µM)
susceptibility category (CLSI M100 interpretive criteria) ([4]; ATCC 33591): R
MIC [4, 9]: > 64 µg/mL
MIC [5, 10]: > 64 µg/mL
susceptibility category (CLSI M100 interpretive criteria) ([5]; VRS-2): R

CN(C)c1cc(NC(=O)CNC(C)(C)C)c(O)c2c1C[C@H]1C[C@H]3[C@H](N(C)C)C(O)=C(C(N)=O)C(=O)[C@@]3(O)C(O)=C1C2=O [Tigecycline]
MIC [1, 6]: 0.25 µg/mL (≈ 0.427 µM)
MIC ([2]; ATCC29213, 18 h, read-out: MIC, antibiotic susceptibility): 0.125 to 0.25 µg/mL (≈ 0.213 to 0.427 µM)
MIC [3, 8]: 0.125 to 0.25 µg/mL (≈ 0.213 to 0.427 µM)
MIC ([4]; ATCC33591|MRSA, 18 h, read-out: MIC, antibiotic susceptibility): 0.25 to 0.5 µg/mL (≈ 0.427 to 0.854 µM)
MIC ([5]; 18 h, read-out: MIC, antibiotic susceptibility): 0.25 µg/mL (≈ 0.427 µM)

Gentamicin
susceptibility category (CLSI M100 interpretive criteria) ([1]; BAA-1556): S
MIC, antibiotic susceptibility ([1]; BAA-1556, CLSI M7-A10, unit not given, in µg/mL (unit assumed)): 0.25-0.5
susceptibility category (CLSI M100 interpretive criteria) [2]: S
MIC, antibiotic susceptibility ([2]; CLSI M7-A10, unit inferred): 0.25 µg/mL
susceptibility category (CLSI M100 interpretive criteria) ([3]; ATCC 19636 (Smith)): S
MIC, antibiotic susceptibility ([3]; ATCC 19636 (Smith), CLSI M7-A10, unit inferred): 0.25 µg/mL
susceptibility category (CLSI M100 interpretive criteria) ([4]; ATCC 33591): S
MIC, antibiotic susceptibility ([4]; ATCC 33591, CLSI M7-A10, unit not given, in µg/mL): 0.25-1
susceptibility category (CLSI M100 interpretive criteria) ([5]; VRS-2): R
MIC, antibiotic susceptibility ([5]; VRS-2, CLSI M7-A10, in µg/mL (unit assumed)): 32-64

Teicoplanin
susceptibility category (CLSI M100 interpretive criteria) [2]: S
MIC, antibiotic susceptibility ([2]; CLSI M7-A10, unit inferred): 0.25 µg/mL

Trimethoprim/sulfamethoxazole
susceptibility category (CLSI M100 interpretive criteria) ([1]; BAA-1556): S
susceptibility category (CLSI M100 interpretive criteria) [2]: S
susceptibility category (CLSI M100 interpretive criteria) ([3]; ATCC 19636 (Smith)): S
susceptibility category (CLSI M100 interpretive criteria) ([4]; ATCC 33591): S
susceptibility category (CLSI M100 interpretive criteria) ([5]; VRS-2): R
MIC, antibiotic susceptibility ([5]; VRS-2, CLSI M7-A10): >8/152
